This is an account of results in the NIST ThermoML archive (doi:10.1021/je1009976).

For series [1] the following is noted: 101 kPa, Liquid; for viscosity: Capillary tube (Ostwald / Ubbelohde) method; for mass density: Pycnometric method.
A short description of series [2]: xn = mol fraction of the nth substance listed. To be noted: 101 kPa, Liquid, x2 = 0; for viscosity: Capillary tube (Ostwald / Ubbelohde) method; for mass density: Pycnometric method.

The structures appear in SMILES notation. ± gives the expanded uncertainty stated by the source.

One may read the viscosity as the resistance of a fluid to flow. A word on the mass density: it is the mass of a sample divided by its volume. Turning to `OCCOCCO` [diethylene glycol], the viscosity in series [1] (303.15 K) stood at 22.16 ± 0.46 mPa·s; in series [1] (308.15 K) it was 17.93 ± 0.44 mPa·s; in series [1] (313.15 K) it was 14.71 ± 0.43 mPa·s; in series [1] (318.15 K), 12.19 ± 0.42 mPa·s; in series [1] (323.15 K), 10.19 ± 0.41 mPa·s. Further, the mass density in series [1] (303.15 K) is recorded as 1109.48 ± 0.75 kg/m3; in series [1] (308.15 K) it was 1105.72 ± 0.75 kg/m3; in series [1] (313.15 K), 1102.11 ± 0.76 kg/m3; in series [1] (318.15 K), 1098.35 ± 0.76 kg/m3; in series [1] (323.15 K) it was 1094.94 ± 0.75 kg/m3.
For the molecule `O` [water] + OCCOCCO, the viscosity in series [2] (303.15 K) turned out to be 0.801 ± 0.4 mPa·s; in series [2] (308.15 K), 0.722 mPa·s; in series [2] (313.15 K), 0.656 mPa·s; in series [2] (318.15 K) it was 0.598 mPa·s; in series [2] (323.15 K) it was 0.549 mPa·s. The values for the mass density in series [2] (308.15 K) and in series [2] (318.15 K) were 994.12 ± 0.39 kg/m3 and 990.3 ± 0.44 kg/m3, respectively.
